Read-outs that look alike come from different tables or passages of the source.
Columns and labels:
Avi-tagged FL MALT-1 = Avi-tagged FL MALT-1 (Homo sapiens (Human), UniProt Q9UDY8); assay: MALT-1 Fluorogenic Peptide Cleavage Assay (MALT1 inhibition assay); format: biochemical; conditions: Ac-LRSR-AMC peptide substrate, 30 min pre-incubation, 90 min reaction at room temperature
Summary of the method: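 Full-length Avi-tagged human MALT-1 (40 nM working stock) pre-incubated 30 min at RT with compound in 25 mM HEPES pH 6.89, 660 mM sodium citrate, 1 mM TCEP, […], 0.05% CHAPS, 2% DMSO. Ac-LRSR-AMC added at Km (50 μM working stock) or 10×Km (280 μM working stock); 90 min at RT, AMC fluorescence (ex 342/em 441 nm), IC50 from % inhibition curves.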

[1] = tested on: NF-kB reporter in Jurkat cells; assay: NF-kB reporter assay in Jurkat cells stimulated with aCD3/aCD28/PMA; format: cell-based; conditions: Homo sapiens, read-out: NF-kB Reporter Assay IC50
Summary of the method: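 Jurkat cells (25,000/well, serum-free RPMI) were pre-incubated 1 h at 37° C with serially diluted compound, then stimulated 4 h with aCD3/aCD28/PMA at final […]. NF-kB reporter activity was read by One-Glo luminescence; IC50 values reported.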

[2] = Jurkat cells, 1 hr compound pre-incubation, aCD3/aCD28/PMA stimulation 4 hr, One-Glo readout

Sequence of Avi-tagged FL MALT-1 (Q9UDY8 whole entry): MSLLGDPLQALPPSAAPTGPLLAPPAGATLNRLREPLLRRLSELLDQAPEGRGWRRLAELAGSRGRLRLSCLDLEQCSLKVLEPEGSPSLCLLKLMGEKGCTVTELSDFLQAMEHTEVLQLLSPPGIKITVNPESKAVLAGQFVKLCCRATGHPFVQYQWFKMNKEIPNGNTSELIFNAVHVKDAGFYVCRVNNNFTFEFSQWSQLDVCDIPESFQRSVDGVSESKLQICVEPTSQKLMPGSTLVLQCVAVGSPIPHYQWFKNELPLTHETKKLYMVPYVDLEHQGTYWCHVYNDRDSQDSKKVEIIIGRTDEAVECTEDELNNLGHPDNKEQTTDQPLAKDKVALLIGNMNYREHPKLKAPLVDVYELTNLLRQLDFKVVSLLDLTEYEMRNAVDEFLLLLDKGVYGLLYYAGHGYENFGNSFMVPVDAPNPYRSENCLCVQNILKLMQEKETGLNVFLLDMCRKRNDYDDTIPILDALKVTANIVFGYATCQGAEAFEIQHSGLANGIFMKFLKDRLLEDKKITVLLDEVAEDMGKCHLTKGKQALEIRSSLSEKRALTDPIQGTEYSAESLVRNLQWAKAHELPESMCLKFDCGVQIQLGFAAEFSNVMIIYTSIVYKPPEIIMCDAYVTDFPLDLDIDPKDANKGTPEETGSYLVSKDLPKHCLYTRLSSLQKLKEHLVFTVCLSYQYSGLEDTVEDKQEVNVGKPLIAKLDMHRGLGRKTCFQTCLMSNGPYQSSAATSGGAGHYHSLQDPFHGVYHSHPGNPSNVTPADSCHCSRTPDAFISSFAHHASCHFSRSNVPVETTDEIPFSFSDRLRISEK

Structure (SMILES)	IC50 (Avi-tagged FL MALT-1) [nM]	IC50 [1, 2] [nM]	IC50 ([1]; Jurkat) [nM]
CN1C[C@H](n2cc(S(=O)(=O)Nc3cccc4cnn(C)c34)cn2)CCC1=O [Compound I-350]	> 2500	> 2500	–
Cn1ncc2cccc(NS(=O)(=O)c3cnn(-c4cc(C5(F)CCC5)ccn4)c3)c21 [Compound I-94, 1-(4-(1-fluorocyclobutyl)pyridin-2-yl)-N-(1-methyl-1H-indazol-7-yl)-1H-pyrazole-4-sulfonamide]	> 2500	< 400	–
Cn1cc2ccc(F)c(NS(=O)(=O)c3cnn(-c4cc(C(F)(F)F)ccn4)c3)c2n1 [Compound I-104, N-(6-fluoro-2-methyl-2H-indazol-7-yl)-1-(4-(trifluoromethyl)pyridin-2-yl)-1H-pyrazole-4-sulfonamide]	> 2500	> 2500	–
Cn1ncc2cccc(NS(=O)(=O)c3cnn(-c4ccccn4)c3)c21 [Compound I-145, N-(1-methyl-1H-indazol-7-yl)-1-(pyridin-2-yl)-1H-pyrazole-4-sulfonamide]	> 2500	–	< 400
COC[C@@H](O)c1ccnc(-n2cc(S(=O)(=O)Nc3cccc4cnn(C)c34)cn2)c1 [Compound I-304]	> 2500	400 to 1000	–
CO[C@]1(c2ccnc(-n3cc(S(=O)(=O)Nc4cccc5cnn(C)c45)cn3)c2)CCOC1 [Compound I-306]	> 2500	< 400	–
COc1ccc2cnn(C)c2c1NS(=O)(=O)c1cnn(-c2cnn3c2CN(C)CC3)c1 [Compound I-468, N-(6-methoxy-1-methylindazol-7-yl)-1-{5-methyl-4H,6H,7H-pyrazolo[1,5-a]pyrazin-3-yl}pyrazole-4-sulfonamide]	> 2500	> 2500	–
COCC(O)(COC)c1ccnc(-n2cc(S(=O)(=O)Nc3cccc4cnn(C)c34)cn2)c1 [Compound I-257, 1-(4-(2-Hydroxy-1,3-Dimethoxypropan-2-yl)Pyridin-2-yl)-N-(1-Methyl-1H-Indazol-7-yl)-1H-Pyrazole-4-Sulfonamide]	> 2500	1000 to 2500	–
[2H]C([2H])([2H])n1nc(F)c2cccc(NS(=O)(=O)c3cnn(-c4cc(C(F)(F)F)ccn4)c3)c21 [Compound I-100]	> 2500	< 400	–
Cn1ncc2cccc(NS(=O)(=O)c3cnn(-c4cc(C5(O)CCCCC5)ccn4)c3)c21 [Compound I-256, 1-[4-(1-hydroxycyclohexyl)pyridin-2-yl]-N-(1-methylindazol-7-yl)pyrazole-4-sulfonamide]	> 2500	< 400	–
Cn1ncc2cccc(NS(=O)(=O)c3cnn(-c4cc(C(F)(F)F)c(Cl)cn4)c3)c21 [Compound I-121, 1-(5-Chloro-4-(Trifluoromethyl)Pyridin-2-yl)-N-(1-Methyl-1H-Indazol-7-yl)-1H-Pyrazole-4-Sulfonamide]	400 to 1000	< 400	–
COC1(c2ccnc(-n3cc(S(=O)(=O)Nc4cccc5cnn(C)c45)cn3)c2)CC(C)(C)C1 [Compound I-478, 1-(4-(1-methoxy-3,3-dimethylcyclobutyl)pyridin-2-yl)-N-(1-methyl-1H-indazol-7-yl)-1H-pyrazole-4-sulfonamide]	> 2500	< 400	–
[2H]c1cnc(-n2cc(S(=O)(=O)Nc3cccc4cnn(C([2H])([2H])[2H])c34)cn2)cc1C(F)(F)F [Compound I-338, N-(1-(methyl-d3)-1H-indazol-7-yl)-1-(4-(trifluoromethyl)pyridin-2-yl-5-d)-1H-pyrazole-4-sulfonamide]	≤ 400	< 400	–
CC(=O)N1CC(O)(c2ccnc(-n3cc(S(=O)(=O)Nc4cccc5cnn(C)c45)cn3)c2)C1 [Compound I-287]	> 2500	> 2500	–
CCc1ccc2cnn(C)c2c1NS(=O)(=O)c1cn(-c2ccnc(C(F)(F)F)c2)nn1 [Compound I-27, N-(6-Ethyl-1-Methyl-1H-Indazol-7-yl)-1-(2-(Trifluoromethyl) Pyridin-4-yl)-1H-1,2,3-Triazole-4-Sulfonamide]	400 to 1000	> 2500	–
COC1(c2ccnc(-n3cc(S(=O)(=O)Nc4cccc5cnn(C)c45)cn3)c2)CC2(CC2)C1 [Compound I-484, 1-(4-(5-methoxyspiro[2.3]hexan-5-yl)pyridin-2-yl)-N-(1-methyl-1H-indazol-7-yl)-1H-pyrazole-4-sulfonamide]	> 2500	< 400	–
Cn1ncc2cccc(NS(=O)(=O)c3cnn(-c4cc(C(F)(F)F)c(F)cn4)c3)c21 [Compound I-122, 1-(5-fluoro-4-(trifluoromethyl)pyridin-2-yl)-N-(1-methyl-1H-indazol-7-yl)-1H-pyrazole-4-sulfonamide]	400 to 1000	< 400	–
Cn1ncc2cccc(NS(=O)(=O)c3cnn(-c4cc(C(F)(F)F)ccn4)c3)c21 [Compound I-15, N-(1-Methyl-1H-Indazol-7-yl)-1-(4-(Trifluoromethyl)Pyridin-2-yl)-1H-Pyrazole-4-Sulfonamide]	400 to 1000	< 400	–

Second part, led by results:

IC50 (Avi-tagged FL MALT-1) [nM]	IC50 [1, 2] [nM]	Structure (SMILES)	IC50 ([1]; Jurkat) [nM]
> 2500	< 400	COc1ccc2cnn(C)c2c1NS(=O)(=O)c1cnn(-c2cc(N3CC[C@@H](C)C3)ccn2)c1 [Compound I-403]	–
> 2500	< 400	CC1CN(c2ccnc(-n3cc(S(=O)(=O)Nc4cccc5cnn(C)c45)cn3)c2)C1 [Compound I-356, N-(1-methyl-1H-indazol-7-yl)-1-(4-(3-methylazetidin-1-yl)pyridin-2-yl)-1H-pyrazole-4-sulfonamide]	–
> 2500	400 to 1000	Cn1ncc2cccc(NS(=O)(=O)c3cnn(-c4cc(N5CC(C)(C)NC5=O)ccn4)c3)c21 [Compound I-285, 1-(4-(4,4-Dimethyl-2-Oxoimidazolidin-1-yl)Pyridin-2-yl)-N-(1-Methyl-1H-Indazol-7-yl)-1H-Pyrazole-4-Sulfonamide]	–
400 to 1000	< 400	COc1ncc2cnn(C)c2c1NS(=O)(=O)c1cnn(-c2cc(N3CCC(F)(F)C3)ccn2)c1 [Compound I-428, 1-(4-(3,3-difluoropyrrolidin-1-yl)pyridin-2-yl)-N-(6-methoxy-1-methyl-1H-pyrazolo[4,3-c]pyridin-7-yl)-1H-pyrazole-4-sulfonamide]	–
> 2500	< 400	C[C@H]1CN(C)C(=O)N1c1ccnc(-n2cc(S(=O)(=O)Nc3cccc4cnn(C)c34)cn2)c1 [Compound I-349]	–
400 to 1000	< 400	COc1ccc2cnn(C)c2c1NS(=O)(=O)c1cnn(-c2cc(C3(OC)CC(C)C3)ccn2)c1 (stereo not shown) [Compound I-142, N-(6-methoxy-1-methyl-1H-indazol-7-yl)-1-(4-(1-methoxy-3-methylcyclobutyl)pyridin-2-yl)-1H-pyrazole-4-sulfonamide]	–
> 2500	< 400	COC1CN(c2ccnc(-n3cc(S(=O)(=O)Nc4cccc5cnn(C)c45)cn3)c2)C1 [Compound I-441, 1-(4-(3-methoxyazetidin-1-yl)pyridin-2-yl)-N-(1-methyl-1H-indazol-7-yl)-1H-pyrazole-4-sulfonamide]	–
> 2500	> 2500	CN1CC(c2ccnc(-n3cc(S(=O)(=O)Nc4cccc5cnn(C)c45)cn3)c2)C1 [Compound I-325]	–
> 2500	400 to 1000	COc1ncc2cnn(C)c2c1NS(=O)(=O)c1cnn(-c2cc(N3CC[C@@H](F)C3)ccn2)c1 [Compound I-427]	–
≤ 400	1000 to 2500	C=CC(F)c1ccnc(-n2cc(S(=O)(=O)Nc3c(OC)ccc4cnn(C)c34)cn2)c1 (stereo not shown) [Compound I-343, 1-(4-(1-fluoroallyl)pyridin-2-yl)-N-(6-methoxy-1-methyl-1H-indazol-7-yl)-1H-pyrazole-4-sulfonamide]	–
> 2500	< 400	COc1ncc2cnn(C)c2c1NS(=O)(=O)c1cnn(-c2cc(N3CCC(C)CC3)ccn2)c1 [Compound I-407]	–
> 2500	< 400	C[C@@H]1CN(C)C(=O)N1c1ccnc(-n2cc(S(=O)(=O)Nc3cccc4cnn(C)c34)cn2)c1 [Compound I-348]	–
> 2500	< 400	Cn1ncc2cccc(NS(=O)(=O)c3cnn(-c4cc(N5CCOCC5)ccn4)c3)c21 [Compound I-103, N-(1-methyl-1H-indazol-7-yl)-1-(4-morpholinopyridin-2-yl)-1H-pyrazole-4-sulfonamide]	–
> 2500	> 2500	COc1ccc2cnn(C)c2c1NS(=O)(=O)c1cnn(-c2cc(N3CC(C(N)=O)C3)ccn2)c1 [Compound I-459]	–
400 to 1000	< 400	COc1ncc2cnn(C)c2c1NS(=O)(=O)c1cnn(-c2cc(N3CCCC3)ccn2)c1 [Compound I-398, N-{6-methoxy-1-methylpyrazolo[4,3-c]pyridin-7-yl}-1-[4-(pyrrolidin-1-yl)pyridin-2-yl]pyrazole-4-sulfonamide]	–
400 to 1000	400 to 1000	CCC(O)(CC)c1ccnc(-n2cc(S(=O)(=O)Nc3c(OC)ccc4cnn(C)c34)cn2)c1 [Compound I-279, 1-[4-(3-hydroxypentan-3-yl)pyridin-2-yl]-N-(6-methoxy-1-methylindazol-7-yl)pyrazole-4-sulfonamide]	–
≤ 400	< 400	CCc1ccc2cnn(C)c2c1NS(=O)(=O)c1cnn(-c2cc(Cl)ccn2)c1 [Compound I-36, 1-(4-Chloropyridin-2-yl)-N-(6-Ethyl-1-Methyl-1H-indazol-7-yl)-1H-Pyrazole-4-Sulfonamide]	–

Source: patent US20240150321A1, “PYRAZOLYLSULFONAMIDE COMPOUNDS AND THEIR USE IN THERAPY” (HOTSPOT THERAPEUTICS, INC., priority 2022, published 2024)
